Like-named read-outs stand apart in the source and are kept apart here.
Target: human Arginine Vasopressin Receptor 1a (AVPR1a) (Homo sapiens, UniProt P37288)
Test: cell-based

human Arginine Vasopressin Receptor 1a (AVPR1a), sequence (P37288 whole entry): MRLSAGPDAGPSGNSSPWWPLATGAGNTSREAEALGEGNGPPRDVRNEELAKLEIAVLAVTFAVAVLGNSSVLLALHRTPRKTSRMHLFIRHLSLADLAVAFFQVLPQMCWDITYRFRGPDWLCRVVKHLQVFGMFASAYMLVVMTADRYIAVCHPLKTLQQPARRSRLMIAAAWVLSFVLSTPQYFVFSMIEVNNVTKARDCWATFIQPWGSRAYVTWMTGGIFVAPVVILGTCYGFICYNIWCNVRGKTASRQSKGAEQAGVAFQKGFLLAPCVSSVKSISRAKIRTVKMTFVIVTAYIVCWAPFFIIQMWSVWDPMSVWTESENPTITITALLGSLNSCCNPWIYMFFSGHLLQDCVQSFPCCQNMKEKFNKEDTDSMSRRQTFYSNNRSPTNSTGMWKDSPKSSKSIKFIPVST

SMILES	IC50 (read-out: V1a-R IC50) [nM]	IC50 [nM]
Cc1cccnc1N1CCN(C(=O)N(CC2CC2)c2ccc(Cl)cc2)CC1 [Compound 160]	8	–
Cc1ccnc(N2CCN(C(=O)N(CC3CC3)c3ccc(Cl)cc3)CC2)c1 [Compound 161]	16	–
O=C(C1CCN(c2ncc(F)cn2)CC1)N1CCCCc2cc(Cl)ccc21 [Compound 162]	35	–
O=C(C1CCN(c2ncc(Cl)cn2)CC1)N1CCCCc2cc(Cl)ccc21 [Compound 164]	56	–
Cc1cc(C)nc(N2CCC(C(=O)N3CCCCc4cc(Cl)ccc43)CC2)n1 [Compound 165]	2	–
Cc1cnc(N2CCC(C(=O)N(CC3CC3)c3ccc(Cl)cc3)CC2)nc1 [Compound 166]	38	–
O=C(C1CCN(c2ncc(Cl)cn2)CC1)N(CC1CC1)c1ccc(Cl)cc1 [Compound 167]	195	–
O=C(C1CCN(c2ncc(F)cn2)CC1)N(CC1CC1)c1ccc(Cl)cc1 [Compound 168]	91	–
Cc1ccnc(N2CCC(C(=O)N(CC3CC3)c3ccc(Cl)cc3)CC2)n1 [Compound 169]	51	–
N#Cc1ccnc(N2CCC(C(=O)N(CC3CC3)c3ccc(Cl)cc3)CC2)n1 [Compound 170]	96	–
O=C(C1CCN(c2nccc(C(F)(F)F)n2)CC1)N(CC1CC1)c1ccc(Cl)cc1 [Compound 171]	146	–
COc1ccnc(N2CCC(C(=O)N(CC3CC3)c3ccc(Cl)cc3)CC2)n1 [Compound 172]	17	–
N#Cc1ccnc(N2CCC(C(=O)N(CC3CC3)c3ccc(Cl)cc3)CC2)c1 [Compound 173]	63	–
O=C(C1CCN(c2nccc(C(F)(F)F)n2)CC1)N1CCCCc2cc(Cl)ccc21 [Compound 174]	82	–
COc1ccnc(N2CCC(C(=O)N3CCCCc4cc(Cl)ccc43)CC2)n1 [Compound 175]	11	–
O=C(C1CCN(c2ccnc(Cl)c2)CC1)N1CCCCc2cc(Cl)ccc21 [Compound 176]	216	–
N#Cc1ccnc(N2CCC(C(=O)N3CCCCc4cc(Cl)ccc43)CC2)c1 [Compound 177]	28	–
O=C(C1CCN(c2cc(C(F)(F)F)ccn2)CC1)N1CCCCc2cc(Cl)ccc21 [Compound 178]	17	–
O=C(C1CCN(c2cc(C(F)(F)F)ccn2)CC1)N(CC1CC1)c1ccc(Cl)cc1 [Compound 179]	–	37
Cc1ccnc(N2CCC(C(=O)N3CCCCc4cc(Cl)ccc43)CC2)n1 [Compound 180]	17	–
N#Cc1ccnc(N2CCC(C(=O)N3CCCCc4cc(Cl)ccc43)CC2)n1 [Compound 181]	81	–

SMILES	IC50 (read-out: V1a-R IC50) [nM]	IC50 [nM]
CCc1cnc(N2CCC(C(=O)N3CCCCc4cc(Cl)ccc43)CC2)nc1 [Compound 182]	49	–
Cc1nc(N2CCC(C(=O)N3CCCCc4cc(Cl)ccc43)CC2)ncc1F [Compound 183]	16	–
Cc1nc(N2CCC(C(=O)N3CCCCc4cc(Cl)ccc43)CC2)ncc1Cl [Compound 184]	26	–
Cc1nc(N2CCC(C(=O)N3CCCCc4cc(Cl)ccc43)CC2)c2ccccc2n1 [Compound 185]	32	–
Cc1cc(N2CCC(C(=O)N3CCCCc4cc(Cl)ccc43)CC2)nc(C)n1 [Compound 186]	405	–
O=C(C1CCN(c2ncnc3cc(Cl)ccc23)CC1)N1CCCCc2cc(Cl)ccc21 [Compound 187]	66	–
CCc1cnc(N2CCC(C(=O)N(CC3CC3)c3ccc(Cl)cc3)CC2)nc1 [Compound 188]	227	–
Cc1nc(N2CCC(C(=O)N(CC3CC3)c3ccc(Cl)cc3)CC2)ncc1F [Compound 189]	48	–
Cc1nc(N2CCC(C(=O)N(CC3CC3)c3ccc(Cl)cc3)CC2)c2ccccc2n1 [Compound 191]	74	–
Cc1cc(N2CCC(C(=O)N(CC3CC3)c3ccc(Cl)cc3)CC2)nc(C)n1 [Compound 192]	1250	–
O=C(C1CCN(c2ncnc3cc(Cl)ccc23)CC1)N(CC1CC1)c1ccc(Cl)cc1 [Compound 193]	861	–
Cc1cc(C)nc(N2CCC(C(=O)N3CCCC(=O)c4cc(Cl)ccc43)CC2)n1 [Compound 194]	158	–
Cc1cc(C)nc(N2CCC(C(=O)N3CCCC(O)c4cc(Cl)ccc43)CC2)n1 (stereo not shown) [Compound 195]	26	–
Cc1cc(C)nc(N2CCC(C(=O)N3CCCC(F)c4cc(Cl)ccc43)CC2)n1 (stereo not shown) [Compound 196]	84	–
Cc1cc(C)nc(N2CCC(C(=O)N3CCCC(C)(O)c4cc(Cl)ccc43)CC2)n1 (stereo not shown) [Compound 197]	134	–
CCCN(C(=O)C1CCN(c2nc(C)cc(C)n2)CC1)c1ccc(Cl)cc1 [Compound 198]	284	–
Cc1cc(C)nc(N2CCC(C(=O)N(CCC(C)C)c3ccc(Cl)cc3)CC2)n1 [Compound 199]	794	–
Cc1cc(C)nc(N2CCC(C(=O)N(CC3CCC3)c3ccc(Cl)cc3)CC2)n1 [Compound 200]	229	–
C#CCN(C(=O)C1CCN(c2nc(C)cc(C)n2)CC1)c1ccc(Cl)cc1 [Compound 201]	28	–
O=C(C1CCN(c2ncc(C3CC3)cn2)CC1)N(CC1CC1)c1ccc(Cl)cc1 [Compound 202]	348	–
O=C(C1CCN(c2ncc(C(F)(F)F)cn2)CC1)N(CC1CC1)c1ccc(Cl)cc1 [Compound 203]	570	–

SMILES	IC50 (read-out: V1a-R IC50) [nM]	IC50 [nM]
O=C(C1CCN(c2ncc3ccccc3n2)CC1)N(CC1CC1)c1ccc(Cl)cc1 [Compound 204]	97	–
O=C(C1CCN(c2ncnc3ccc(F)cc23)CC1)N(CC1CC1)c1ccc(Cl)cc1 [Compound 205]	74	–
O=C(C1CCN(c2nc3ccccc3o2)CC1)N(CC1CC1)c1ccc(Cl)cc1 [Compound 206]	130	–
O=C(C1CCN(c2nc3ccc(Cl)cc3o2)CC1)N(CC1CC1)c1ccc(Cl)cc1 [Compound 207]	350	–
O=C(C1CCN(c2ncc3c(n2)CCC3)CC1)N(CC1CC1)c1ccc(Cl)cc1 [Compound 208]	33	–
O=C(C1CCN(c2ncc(C3CC3)cn2)CC1)N1CCCCc2cc(Cl)ccc21 [Compound 209]	69	–
O=C(C1CCN(c2ncc(C(F)(F)F)cn2)CC1)N1CCCCc2cc(Cl)ccc21 [Compound 210]	89	–
O=C(C1CCN(c2ncc3ccccc3n2)CC1)N1CCCCc2cc(Cl)ccc21 [Compound 211]	16	–
O=C(C1CCN(c2ncnc3ccc(F)cc23)CC1)N1CCCCc2cc(Cl)ccc21 [Compound 212]	49	–
O=C(C1CCN(c2nc3ccccc3o2)CC1)N1CCCCc2cc(Cl)ccc21 [Compound 213]	24	–
O=C(C1CCN(c2nc3ccc(Cl)cc3o2)CC1)N1CCCCc2cc(Cl)ccc21 [Compound 214]	45	–
O=C(C1CCN(c2ncc3c(n2)CCC3)CC1)N1CCCCc2cc(Cl)ccc21 [Compound 215]	7	–
Cc1cc(N2CCC(C(=O)N(CC3CC3)c3ccc(Cl)cc3)CC2)ncc1Cl [Compound 216]	41	–
Cc1cc(Cl)cnc1N1CCC(C(=O)N(CC2CC2)c2ccc(Cl)cc2)CC1 [Compound 217]	50	–
Cc1cnc(N2CCC(C(=O)N(CC3CC3)c3ccc(Cl)cc3)CC2)c(F)c1 [Compound 218]	20	–
O=C(C1CCN(c2ncc(Cl)cc2F)CC1)N(CC1CC1)c1ccc(Cl)cc1 [Compound 219]	61	–
Cc1cc(N2CCC(C(=O)N3CCCCc4cc(Cl)ccc43)CC2)ncc1Cl [Compound 220]	7	–
Cc1cc(Cl)cnc1N1CCC(C(=O)N2CCCCc3cc(Cl)ccc32)CC1 [Compound 221]	7	–
Cc1cnc(N2CCC(C(=O)N3CCCCc4cc(Cl)ccc43)CC2)c(F)c1 [Compound 222]	5	–

— patent US20150376198A1, “MODULATORS OF VASOPRESSIN RECEPTORS WITH THERAPEUTIC POTENTIAL” (priority 2013, published 2015)
